Reference: US20200384072A1, “THERAPY OF IONIZING RADIATION-INDUCED DISORDERS” (SCK-CEN, priority 2019, published 2020)
Entries after “also recorded” stand apart in the source; their conditions may differ.

Assays:
TIME cells = experiment: Scrape loading and dye transfer (SLDT), gap junctional coupling after irradiation, TIME cells; assay type: cell-based, human; details: Carbenoxolone 50 μM, single 0.1 or 5 Gy, 6 h and 72 h p.i.
Description: (§1) The scrape loading and dye transfer assay (SLDT) was used to assess gap junctional function after IR exposure. TICAE and TIME cells were seeded in a 24-well plate at a density of 1×10^5 cells/well in four to six biological replicates. Three days later, cells reached 100% confluence and the medium was refreshed before irradiation with 1 ml/well for single irradiation experiment and 1.5 ml for fractionated irradiation experiment. At different time points after irradiation (6 and 72 h post single irradiation, or 72 h post fractionated irradiation) the cells were washed 3 times with a scrape loading and dye transfer (SLDT) buffer (137 mM NaCl, 5.36 mM KCl, 0.81 mM MgCl2, 5.55 mM […], 25 mM HEPES, pH 7.4). Then, the cells were incubated with a SLDT solution composed of SLDT buffer and 400 μM 6-carboxyfluorescein (6-CF, 0.376 kDa) (Sigma-Aldrich Co. LCC, Diegem, Belgium) for one minute. A vertical scratch was made in the middle of each well, using a 20G needle (Becton Dickinson, Erembodegem, Belgium). After another one minute incubation, the cells were washed 6 times with HMS supplemented with 25 mM HEPES (Sigma-Aldrich Co. LCC, Diegem, Belgium). […] The relative area of 6-CF transfer was calculated using FIJI software. By analyzing the area of the dye diffusion from the first line of cells to adjacent cells, the gap junctional coupling was determined.

[1] = system: primary brain microvascular endothelial cells (pBMECs); experiment: γ-H2AX counts after local 3×3 mm X-ray irradiation (irradiated and bystander zones), pBMECs; assay type: cell-based, mouse; details: 1 Gy, 3 h post-irradiation
Description: Cortices, from 10-12 week old mice, were isolated by removing cerebellum, striatum, optic nerves, brain white matter, outer vessels and meninges. After homogenization with a Dounce homogenizer in WBB (Washing Buffer B: HMS, 10 mM Hepes, 0.35 g/L NaHCO3, 0.1% BSA), the homogenate was mixed with 30% dextran in WBB and centrifuged at 3000×g for 25 min at 4° C. The pellet containing the vascular component was then resuspended in WBB and filtered through a 60 μm NY60 Nylon Net Filter (Millipore, Darmstadt, Germany). Following centrifugation at 1000×g for 7 min at room temperature, the pellet was digested in collagenase/dispase supplement with DNase I (Roche Diagnostics, Vilvoorde, Belgium) and TLCK (Tosyl, Lysin chloromethyl ketone, sigma-aldrich) for 33 min at 37° C. in a shaking water bath. The digested capillary suspension was then seeded after multiple washing steps on wells coated with matrigel or glass coated with Corning Cell-Tak (VWR, Leuven, Belgium). For the isolation of intact capillaries the protocol was aborted just before the digestion step.
(§2) A defined area of the cell culture dishes were exposed to X-rays (1Gy or 20 Gy) by using a small animal radiation research platform (SARRP, Xstrahl, 220 kV, 13 mA), making use of a 3×3 mm collimator. Whole dish irradiation was done using a 10×10 cm broad-beam collimator, while localized Irradiation was performed with a 3×3 mm collimator. A Gafchromic RTQA2 film, with a sensitivity of 0.02 Gy, was placed underneath the cell dishes in order to delineate the irradiated zone.
(§3) Cells were fixed for 25 min with 4% formaldehyde (VWR) and blocked for 30 min with blocking buffer (5% normal goat serum, 1% bovine serum albumin (BSA), 0.2% Triton X-100 in PBS D+). Overnight incubation with primary antibody (1/500 anti-γ-H2AX in dilution buffer, 1/10 blocking buffer in PBS D+) was followed by a 1 h incubation with 1/400 XX-biotin-goat-anti-mouse antibody in dilution buffer, followed by a 1 h incubation with 1/400 streptavidin-alexa488 in PBS D+. Nuclei were stained with 1 μg/mL DAPI in PBS D+ for 10 min and cells were kept in PBS D+ supplemented with NaN3 at 4° C. All steps except the overnight incubation which was carried out at 4° C., were carried out at room temperature and cell cultures were rinsed thoroughly with PBS D+ between all incubation steps. Imaging was performed with an automated BD Pathway 435 imaging system (10× objective, 10×10 montage resulting in an overall image size of 8.5×6.5 mm). We then quantified the number of γ-H2AX-foci positive nuclei in the directly irradiated and bystander areas and expressed the count as a percentage relative to the number of nuclei and subtracted the percentage of background γ-H2AX signal in non-irradiated paired control cultures for each experiment. For counting γ-H2AX foci, images were thresholded to remove background pixel noise below the foci level. Where applicable, results were normalized against vehicle (bar charts with a 100% vehicle bar without statistical variability or a horizontal line).

RBE4 cells [2] = experiment: Cytosolic Ca2+ imaging after medium transfer from irradiated to recipient RBE4 cells; assay type: cell-based, rat; details: for AUC of Ca2+ transients in recipient bystander cells: inhibitor added to the irradiated culture 30 min before irradiation, NALC 1 mM; for [Ca2+]i responses in recipient cells: inhibitor added to the recipient cells, PPADS 50 μM
Description: Cells were seeded on glass coverslips (18 mm 0) coated with 3.5 μg/cm^2 Corning cell-tak (VWR, Leuven, Belgium) and ester loaded for 45 min with 10 μM Fluo-3-AM in HBSS-HEPES supplemented with 1 mM of probenecid and 0.01% of pluronic F127 at room temperature followed by de-esterification over 15 min. Imaging was performed using an inverted fluorescence microscope equipped with a ×40 oil immersion objective and an EM-CCD camera (QuantEM™ 512SC CCD camera, Photometrics, Tucson, Ariz.). For direct Ca^2+ measurements the loaded cells were irradiated and transferred to the microscopy stage. For medium transfer, the loaded cells were superfused for 1 min with HBSS-Hepes (1 mM), followed by 4 min with HBSS-Hepes conditioned by irradiated cultures. Fluorescence intensity changes in the cells were analyzed with custom-developed FluoFrames software (L. Leybaert, Ghent, Belgium). Ca^2+ changes were quantified as the area under the curve (AUC) of the Ca^2+ traces.

RBE4 cells [3] = experiment: γ-H2AX counts after local 3×3 mm X-ray irradiation (irradiated and bystander zones), RBE4 cells; assay type: cell-based, rat; details: 1 Gy, 3 h post-irradiation, Cbx 50 μM, Gap26 161 μM, TAT-Gap19 200 μM, Xestospongin C 5 μM
Description: as §2, §3

TICAE cells = experiment: Scrape loading and dye transfer (SLDT), gap junctional coupling after irradiation, TICAE cells; assay type: cell-based, human; details: Carbenoxolone 50 μM, single 0.1 or 5 Gy, 6 h and 72 h p.i.
Description: as §1

RBE4 cells [4] = experiment: Irradiation-induced ATP release, RBE4 cells; assay type: cell-based, rat; details: broad-beam 1 Gy, 5 min post-irradiation, BAPTA-AM 10 μM, NALC 1 mM, c-PTIO 100 μM
Description: ATP was measured using a luciferin-luciferase assay kit (Sigma-Aldrich) in combination with a luminometer plate reader (Victor3 1420 multi label counter; Perkin Elmer, Zaventem, Belgium).
Extracellular ATP measurements were initially carried out at different time-points post-irradiation, the effect of blockers on ATP release was tested at the 5 min post-irradiation time-point (time of maximum ATP release).

RBE4 cells [5] = experiment: Irradiation-induced propidium iodide dye uptake, RBE4 cells; assay type: cell-based, rat; details: 1 Gy, 5 min post-irradiation
Description: Cells were grown to near confluency in 4-well plates. Cultures were incubated with 1 mM propidium iodide (PI) and 200 μM 10 kDa dextran-FITC before focal irradiation and dye uptake was measured 5 min post-irradiation by measuring the fluorescence intensity of both dyes following image acquisition with a BD pathway 435 imaging system.

Row | Molecule | 6-CF dye spread (gap junctional dye coupling) (TIME cells) | γ-H2AX counts in the bystander zone (normalized to vehicle) [1] | γ-H2AX counts in the irradiated area (normalized to vehicle) [1] | AUC of Ca2+ transients in recipient bystander cells (RBE4 cells [2]) | [Ca2+]i responses in recipient cells (RBE4 cells [2]) | γ-H2AX counts in the bystander zone (normalized to vehicle) (RBE4 cells [3]) | γ-H2AX counts in the irradiated zone (normalized to vehicle) (RBE4 cells [3]) | 6-CF dye spread (gap junctional dye coupling) (TICAE cells) | irradiation-induced ATP release (RBE4 cells [4]) | PI uptake in the bystander area (RBE4 cells [5]) | PI uptake in the irradiated area (RBE4 cells [5])
1 | CC1(C)[C@@H](OC(=O)CCC(=O)O)CC[C@]2(C)[C@H]3C(=O)C=C4[C@@H]5C[C@@](C)(C(=O)O)CC[C@]5(C)CC[C@@]4(C)[C@]3(C)CC[C@@H]12 [Carbenoxolone, carbenoxolone] | inhibited the dye spread in all cases | significant decrease | significant decrease | reduced the area under the curve (AUC) | inhibited the [Ca^2]i responses | significantly inhibited | not statistically significant | inhibited the dye spread in all cases | inhibited |  | 
2 | Gap26: connexin mimetic peptide, amino acids 64-76 from the first extracellular loop of Cx43 (SEQ ID NO: 1) (VCYDKSFPISHVR; Synthetic peptide_Gap26) |  |  | only had effect in the bystander zone | reduced the area under the curve (AUC) | inhibited the [Ca^2]i responses | significantly inhibited | significantly inhibited |  | inhibited | significantly reduced; also recorded: inhibited | significantly reduced; also recorded: inhibited
